ChEMBL document CHEMBL3392982, “Synthesis and membrane-protective activity of novel derivatives of α-mangostin at the C-4 position” (Bioorg Med Chem Lett, 2015)
Calls of active or inactive are those of the source. No cut-off for these calls is given here.

Key:
[1] = Toxicity in mouse erythrocytes assessed as induction of hemolysis at 10 and 30 uM incubated for 5 hrs; type: cell-based; settings: erythrocyte
Erythrocyte [2] = experiment: Membrane-protective activity in mouse erythrocytes assessed as inhibition of H2O2-induced hemolysis at 1 uM pre-incubated for 30 mins before H2O2 injection and measured 5 hrs post H2O2 injection; type: functional, cell-based
Erythrocyte [3] = experiment: Antioxidant activity in mouse erythrocytes assessed as inhibition of H2O2-induced secondary lipid peroxidation at 1 to 30 uM pre-incubated for 30 mins before H2O2 injection and measured 4 hrs post H2O2 injection by TBARS detection based spectrophotometry; type: functional, cell-based
Erythrocyte [4] = experiment: Inhibition of H2O2-induced oxyhemoglobin oxidation in mouse erythrocytes assessed as metHb/oxyHb ratio level at 1 uM pre-incubated for 30 mins before H2O2 injection and measured 5 hrs post H2O2 injection; type: functional; parameters: scale not given: the % may be the effect or the level left
Erythrocyte [5] = experiment: Inhibition of H2O2-induced oxyhemoglobin oxidation in mouse erythrocytes assessed as metHb/oxyHb ratio level at 10 uM pre-incubated for 30 mins before H2O2 injection and measured 5 hrs post H2O2 injection; type: functional; parameters: scale not given: the % may be the effect or the level left
Erythrocyte [6] = experiment: Inhibition of H2O2-induced oxyhemoglobin oxidation in mouse erythrocytes assessed as metHb/oxyHb ratio level at 30 uM pre-incubated for 30 mins before H2O2 injection and measured 5 hrs post H2O2 injection; type: functional; parameters: scale not given: the % may be the effect or the level left
Erythrocyte [7] = experiment: Inhibition of H2O2-induced oxyhemoglobin oxidation in mouse erythrocytes assessed as ferrylHb/oxyHb ratio level at 1 uM pre-incubated for 30 mins before H2O2 injection and measured 5 hrs post H2O2 injection; type: functional; parameters: scale not given: the % may be the effect or the level left
Erythrocyte [8] = experiment: Inhibition of H2O2-induced oxyhemoglobin oxidation in mouse erythrocytes assessed as ferrylHb/oxyHb ratio level at 10 uM pre-incubated for 30 mins before H2O2 injection and measured 5 hrs post H2O2 injection; type: functional; parameters: scale not given: the % may be the effect or the level left
Erythrocyte [9] = experiment: Inhibition of H2O2-induced oxyhemoglobin oxidation in mouse erythrocytes assessed as ferrylHb/oxyHb ratio level at 30 uM pre-incubated for 30 mins before H2O2 injection and measured 5 hrs post H2O2 injection; type: functional; parameters: scale not given: the % may be the effect or the level left
Erythrocyte [10] = experiment: Membrane-protective activity in mouse erythrocytes assessed as inhibition of H2O2-induced hemolysis pre-incubated for 30 mins before H2O2 injection and measured 5 hrs post H2O2 injection; type: functional, cell-based
[11] = Toxicity in H2O2-induced mouse erythrocytes assessed as induction of hemolysis at 30 uM pre-incubated for 30 mins before H2O2 injection and measured 5 hrs post H2O2 injection; type: cell-based; settings: erythrocyte
[12] = Toxicity in rabbit erythrocytes assessed as induction of cell death at 7.8 to 15.6 uM within 1 hr; type: cell-based, Oryctolagus cuniculus, Erythrocyte; settings: read-out: Activity
[13] = Toxicity in rabbit erythrocytes assessed as induction of hemolysis at 10 uM within 1 hr; type: cell-based, Oryctolagus cuniculus, Erythrocyte; settings: read-out: Activity
Erythrocyte [14] = experiment: Membrane-protective activity in mouse erythrocytes assessed as inhibition of H2O2-induced hemolysis at 10 to 30 uM pre-incubated for 30 mins before H2O2 injection and measured 5 hrs post H2O2 injection; type: functional, cell-based
Erythrocyte [15] = experiment: Membrane-protective activity in mouse erythrocytes assessed as inhibition of H2O2-induced hemolysis at 30 uM pre-incubated for 30 mins before H2O2 injection and measured 5 hrs post H2O2 injection; type: functional, cell-based

Compound | Activity [1] | Activity (Erythrocyte [2]) | Activity (Erythrocyte [3]) | Activity (Erythrocyte [4]) [%] | Activity (Erythrocyte [5]) [%] | Activity (Erythrocyte [6]) [%] | Activity (Erythrocyte [7]) [%] | Activity (Erythrocyte [8]) [%] | Activity (Erythrocyte [9]) [%] | Activity (Erythrocyte [10]) | Activity [11] | hemolysis at 1 h, up to 15.6 µM [12] [%] | hemolysis at 1 h, 10 µM [13] [%] | Activity (Erythrocyte [14]) | Activity (Erythrocyte [15])
COc1c(O)cc2oc3c(Cc4cc([C@H]5C[C@@H]6CC[C@@]5(C)C6(C)C)c(O)c([C@@H]5C[C@H]6CC[C@]5(C)C6(C)C)c4)c(O)c(CC=C(C)C)c(O)c3c(=O)c2c1CC=C(C)C | Non-toxic | Active | Active | 60.1 | 77.3 | 105.6 | 61.5 | 70.9 | 64.2 |  |  |  |  |  | 
COc1c(O)cc2oc3c(CN(C)C)c(O)c(CC=C(C)C)c(O)c3c(=O)c2c1CC=C(C)C | Non-toxic |  | Active | 65.8 | 37.5 | 196.4 | 67.4 | 35.5 | 162.3 | Dose-dependent effect | Toxic |  |  |  | 
COc1c(O)cc2oc3cc(O)c(CC=C(C)C)c(O)c3c(=O)c2c1CC=C(C)C [MANGOSTIN] | Toxic |  | Active | 44.7 | 45.5 |  | 55.3 | 39.5 |  | Dose-dependent effect | Toxic | 10.5 | 10.1 |  | 
COc1c(O)cc2oc3c(CN4CCCCC4)c(O)c(CC=C(C)C)c(O)c3c(=O)c2c1CC=C(C)C | Non-toxic |  | Active | 56.9 | 40.7 | 24 | 58 | 32.3 | 18.5 |  |  |  |  | Active | 
COc1c(O)cc2oc3c(CN4CCOCC4)c(O)c(CC=C(C)C)c(O)c3c(=O)c2c1CC=C(C)C | Non-toxic |  | Active | 112.5 | 42.7 | 27.9 | 91.8 | 37.1 | 25.2 |  |  |  |  | Active | 
COc1c(O)cc2oc3c(Cc4cc(C(C)(C)C)c(O)c(C(C)(C)C)c4)c(O)c(CC=C(C)C)c(O)c3c(=O)c2c1CC=C(C)C | Non-toxic |  | Active | 98.4 | 63.8 | 35.5 | 81 | 53.3 | 22.5 |  |  |  |  |  | Active
